Measured values taken from ChEMBL document CHEMBL4190312, “Tau protein aggregation in Alzheimer's disease: An attractive target for the development of novel therapeutic agents” (Eur J Med Chem, 2017).

Columns and labels:
Protein O-GlcNAcase = biological target: T1, Protein O-GlcNAcase (Homo sapiens, UniProt O60502); assay: Competitive inhibition of human O-GlcNAcase by Lineweaver-Burk analysis
T1 sequence (O60502 whole entry): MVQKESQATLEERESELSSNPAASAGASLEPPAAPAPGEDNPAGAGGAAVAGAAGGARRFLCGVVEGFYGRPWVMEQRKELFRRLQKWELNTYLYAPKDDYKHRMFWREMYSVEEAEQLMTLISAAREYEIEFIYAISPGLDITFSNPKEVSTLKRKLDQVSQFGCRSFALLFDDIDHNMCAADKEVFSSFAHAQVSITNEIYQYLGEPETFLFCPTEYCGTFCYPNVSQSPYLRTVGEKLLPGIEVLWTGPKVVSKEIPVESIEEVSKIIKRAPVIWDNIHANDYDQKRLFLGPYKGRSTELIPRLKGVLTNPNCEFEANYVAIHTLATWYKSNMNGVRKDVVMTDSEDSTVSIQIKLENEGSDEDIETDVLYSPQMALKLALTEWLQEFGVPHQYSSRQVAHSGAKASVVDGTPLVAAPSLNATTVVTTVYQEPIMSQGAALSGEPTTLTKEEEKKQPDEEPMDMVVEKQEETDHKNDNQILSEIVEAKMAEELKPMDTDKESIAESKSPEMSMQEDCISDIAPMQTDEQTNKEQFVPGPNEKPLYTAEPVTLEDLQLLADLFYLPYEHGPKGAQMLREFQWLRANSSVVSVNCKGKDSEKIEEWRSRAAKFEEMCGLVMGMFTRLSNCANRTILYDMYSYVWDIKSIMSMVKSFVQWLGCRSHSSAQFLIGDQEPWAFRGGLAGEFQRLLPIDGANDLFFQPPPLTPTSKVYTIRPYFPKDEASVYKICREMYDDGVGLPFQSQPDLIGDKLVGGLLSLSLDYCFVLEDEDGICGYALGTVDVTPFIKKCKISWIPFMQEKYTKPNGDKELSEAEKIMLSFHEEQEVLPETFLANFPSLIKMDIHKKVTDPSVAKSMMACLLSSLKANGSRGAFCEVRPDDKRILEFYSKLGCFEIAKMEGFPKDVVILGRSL

Homo sapiens [1] = species: Homo sapiens; assay: Selectivity index, ratio of Ki for human beta-hexosaminidase A to Ki for human O-GlcNAcase
Homo sapiens [2] = species: Homo sapiens; assay: Selectivity index, ratio of Ki for human beta-hexosaminidase B to Ki for human O-GlcNAcase

SMILES: C=C/C=C/C(=O)N[C@H]1c2nc(CCc3ccccc3)cn2[C@H](CO)[C@@H](O)[C@@H]1O
- Ki (Protein O-GlcNAcase): 4.1 nM
- Ratio Ki (Homo sapiens [1]): 900000
- Ratio Ki (Homo sapiens [2]): 900000
